# Measurements from ChEMBL document CHEMBL1130792, “Studies on an immunosuppressive macrolactam, ascomycin: synthesis of a C-33 hydroxyl derivative” (Bioorg Med Chem Lett, 1998).
# How the values were obtained:
# [1] = Solubility at pH 7.4; format: physicochemical; details: buffer
# [2] = Solubility at pH 6.5; format: physicochemical; details: buffer
# [3] = organism: Homo sapiens; test: Compound was tested in vitro for inhibitory activity against human FKBP; format: functional
# [4] = Distribution coefficient (Log D) value at pH 6.5; format: physicochemical; details: octanol/water, read-out: LogD6.5
# [5] = Distribution coefficent (Log D) value at pH 7.4; format: physicochemical; details: read-out: LogD7.4
# [6] = organism: Homo sapiens; test: Compound was tested in vitro for inhibition of human mixed lymphocyte proliferation (HuMLR); format: functional
# [7] = system: Rattus norvegicus; test: Compound was tested in vivo for immunosuppressive activity using rat popliteal lymph node (rPLN) hyperplasia assay; format: functional
# [8] = system: Rattus norvegicus; test: Compound was tested in vivo for immunosuppressive activity using rat popliteal lymph node (rPLN) hyperplasia assay at 3 mg/kg; format: functional
# [9] = Compound was tested in vitro for inhibitory activity against human FK506 binding protein
solubility [1] [µg/mL],solubility ([2]; read-out: Solubility) [µg/mL],IC50 [3] [nM],logD [4],logD [5],solubility [2] [µg/mL],IC50 [9] [nM],Structure (SMILES),IC50 [6] [nM],ED50 [7] [mg/kg],inhibition in vivo at 3 mg/kg [8] [%]
455,464,1.21,3.6,3.4,,,CC[C@@H]1/C=C(\C)C[C@H](C)C[C@H](OC)[C@H]2O[C@@](O)(C(=O)C(=O)N3CCCC[C@H]3C(=O)O[C@H](/C(C)=C/[C@@H]3C[C@@H](O)[C@@H](O)[C@H](OC)C3)[C@H](C)[C@@H](O)CC1=O)[C@H](C)C[C@@H]2OC,0.17,0.72,
245,294,39.2,3.9,3.9,,,CC[C@@H]1/C=C(\C)C[C@H](C)C[C@H](OC)[C@H]2O[C@@](O)(C(=O)C(=O)N3CCCC[C@H]3C(=O)O[C@H](/C(C)=C/[C@@H]3CC[C@@H](OC)[C@H](O)C3O)[C@H](C)[C@@H](O)CC1=O)[C@H](C)C[C@@H]2OC (stereo partly drawn),0.72,,36
4.2,,2.06,3.98,4.22,1.6,,CC[C@@H]1/C=C(\C)C[C@H](C)C[C@H](OC)[C@H]2O[C@@](O)(C(=O)C(=O)N3CCCC[C@H]3C(=O)O[C@H](/C(C)=C/[C@@H]3CC[C@@H](O)[C@H](OC)C3)[C@H](C)[C@@H](O)CC1=O)[C@H](C)C[C@@H]2OC [ASCOMYCIN],0.25,0.31,
5.2,1,,4.36,4.38,,2.54,C=CC[C@@H]1/C=C(\C)C[C@H](C)C[C@H](OC)[C@H]2O[C@@](O)(C(=O)C(=O)N3CCCC[C@H]3C(=O)O[C@H](/C(C)=C/[C@@H]3CC[C@@H](O)[C@H](OC)C3)[C@H](C)[C@@H](O)CC1=O)[C@H](C)C[C@@H]2OC [TACROLIMUS ANHYDROUS],0.37,0.15,
